ChEMBL document CHEMBL1201862, “PubChem BioAssay data set” (2004)
Activity calls are given as the source filed them.

Legend:
[1] = test system: BJ; experiment: cells; assay type: functional, cell-based; details: Homo sapiens
[2] = test system: HEK293; experiment: cells; assay type: functional, cell-based; details: Homo sapiens
[3] = cytotoxicity toward DRD oncogenic fibroblasts, dose response, cell-based, non-viral oncogenic, luminescence (AID 1934); assay type: functional; details: Homo sapiens
[4] = test system: BJ; experiment: cytotoxicity toward BJ-TERT-LT-ST fibroblasts, dose response, cell-based, RAS-independent, luminescence (AID 1935); assay type: functional; details: Homo sapiens;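 further: BJ fibroblasts immortalized with TERT plus LT and ST oncogenes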
[5] = test system: BJ; experiment: cytotoxicity toward BJ-TERT fibroblasts, dose response, cell-based, RAS-independent, luminescence (AID 1933); assay type: functional; details: Homo sapiens
[6] = test system: HEK293; experiment: cells; assay type: functional, cell-based; details: Homo sapiens; remark: listed apart in the source
[7] = test system: HEK293; experiment: NOD2 signaling inhibitors in MDP-stimulated cells, cell-based, uHTS, luminescence (AID 2001); assay type: functional; details: Homo sapiens
[8] = test system: HEK293; experiment: NOD1 signaling inhibitors, primary screen, cell-based, luminescence, uHTS (AID 1578); assay type: functional; details: Homo sapiens
[9] = microbe, parasite or virus in culture; assay type: functional; details: Mycobacterium tuberculosis
[10] = cytotoxicity in HEK-293T cells, dose response, cytotoxicity control for TCR NF-kB inhibitor project, luminescence, T-cell screen hits (AID 489026); assay type: functional, cell-based;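 further: cells exposed to compound about 14 hours before the viability readout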
[11] = molecular target: T1, Short transient receptor potential channel 4 (Mus musculus, UniProt Q9QUQ5); experiment: mouse TRPC4 channel activators, dose response, cell-based, HEK293 TRPC4/mu-opioid, Fluo-4 calcium (AID 434937); assay type: functional
T1 sequence (Q9QUQ5 whole entry): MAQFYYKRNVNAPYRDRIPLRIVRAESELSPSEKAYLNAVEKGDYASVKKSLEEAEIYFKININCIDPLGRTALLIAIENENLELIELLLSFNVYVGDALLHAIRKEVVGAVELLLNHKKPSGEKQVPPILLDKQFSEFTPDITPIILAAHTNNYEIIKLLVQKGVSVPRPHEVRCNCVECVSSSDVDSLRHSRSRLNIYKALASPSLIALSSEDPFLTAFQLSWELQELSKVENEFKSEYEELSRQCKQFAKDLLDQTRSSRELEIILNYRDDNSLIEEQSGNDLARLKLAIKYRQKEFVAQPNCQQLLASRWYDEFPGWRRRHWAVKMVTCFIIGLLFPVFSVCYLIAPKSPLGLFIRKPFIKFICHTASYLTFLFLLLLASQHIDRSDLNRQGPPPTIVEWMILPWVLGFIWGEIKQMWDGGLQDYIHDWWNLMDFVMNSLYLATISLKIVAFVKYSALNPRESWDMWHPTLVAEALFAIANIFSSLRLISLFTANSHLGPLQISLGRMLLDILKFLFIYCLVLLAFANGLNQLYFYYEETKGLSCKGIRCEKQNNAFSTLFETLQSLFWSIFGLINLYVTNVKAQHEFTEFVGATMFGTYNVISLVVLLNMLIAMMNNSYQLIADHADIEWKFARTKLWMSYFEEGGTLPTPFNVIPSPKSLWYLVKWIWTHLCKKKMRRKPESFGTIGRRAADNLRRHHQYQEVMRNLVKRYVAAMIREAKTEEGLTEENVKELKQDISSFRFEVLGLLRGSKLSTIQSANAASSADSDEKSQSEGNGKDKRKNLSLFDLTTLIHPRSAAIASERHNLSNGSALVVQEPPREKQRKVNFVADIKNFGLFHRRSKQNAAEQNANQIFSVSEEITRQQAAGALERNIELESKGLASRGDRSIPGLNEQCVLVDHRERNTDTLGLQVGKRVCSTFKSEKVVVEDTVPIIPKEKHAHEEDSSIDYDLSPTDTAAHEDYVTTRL

[12] = P. falciparum Dd2 growth inhibitors, dose response, SYBR Green, cherry-picked samples (AID 1159567); assay type: functional, cell-based
[13] = Luminescence Cell-Based Dose Retest to Confirm Inhibitors of Cancer Stem Cells. [Related pubchem assays (depositor defined):AID2717, AID2721]; assay type: functional; details: Homo sapiens
[14] = Luminescence Cell-Based Dose Confirmation HTS to Identify Activators of 5'UTR Stem-Loop Driven Alpha-Synuclein mRNA Translation in H4 Neuroglioblastoma Cells. [Related pubchem assays: 1829 (Project Summary), 1814 (Primary HTS)]; assay type: functional
[15] = Luminescence Cell-Based Dose Response HTS to Identify Activators of Luciferase Translation or Activity in H4 […] Cells. [Related pubchem assays: 1829 (Project Summary), 1814 (Primary HTS)]; assay type: functional
[16] = test system: H4; experiment: Luminescence Cell-Based Dose Response HTS to Identify Activators of 5'UTR Stem-Loop Driven Prion Protein mRNA Translation in H4 Neuroglioblastoma Cells. [Related pubchem assays: 1829 (Project Summary), 1814 (Primary HTS)]; assay type: functional; details: Homo sapiens
[17] = molecular target: T2, Coagulation factor XII (Homo sapiens, UniProt P00748); assay type: functional;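 further: activated factor XIIa alpha cleaving a fluorogenic AMC peptide substrate; inhibitor potency from loss of enzyme activity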
T2 sequence (P00748 whole entry): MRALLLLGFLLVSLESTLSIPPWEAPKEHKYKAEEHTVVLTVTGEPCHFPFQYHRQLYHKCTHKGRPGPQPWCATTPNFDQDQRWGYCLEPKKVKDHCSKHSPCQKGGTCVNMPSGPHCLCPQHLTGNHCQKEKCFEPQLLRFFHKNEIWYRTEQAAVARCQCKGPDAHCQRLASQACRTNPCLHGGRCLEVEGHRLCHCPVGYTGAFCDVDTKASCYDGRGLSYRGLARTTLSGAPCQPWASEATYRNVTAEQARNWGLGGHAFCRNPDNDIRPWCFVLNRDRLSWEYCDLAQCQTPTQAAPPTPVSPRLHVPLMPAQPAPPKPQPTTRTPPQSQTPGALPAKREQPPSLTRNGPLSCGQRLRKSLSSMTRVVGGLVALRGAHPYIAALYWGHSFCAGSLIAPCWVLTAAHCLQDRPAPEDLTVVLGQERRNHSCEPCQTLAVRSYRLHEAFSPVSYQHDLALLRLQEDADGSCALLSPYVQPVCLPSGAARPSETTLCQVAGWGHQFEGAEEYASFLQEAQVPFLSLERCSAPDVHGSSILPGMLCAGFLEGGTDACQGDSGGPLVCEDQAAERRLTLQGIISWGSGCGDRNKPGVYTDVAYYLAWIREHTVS

[18] = molecular target: T3, Corticotropin-releasing factor receptor 2/Corticotropin-releasing factor-binding protein (Homo sapiens, UniProt P24387+Q13324); experiment: Dose Response confirmation of uHTS hits for small molecule antagonists of the CRF-binding protein and CRF-R2 receptor complex.; assay type: functional; details: read-out: IC50_Mean
T3 sequence (Q13324 whole entry): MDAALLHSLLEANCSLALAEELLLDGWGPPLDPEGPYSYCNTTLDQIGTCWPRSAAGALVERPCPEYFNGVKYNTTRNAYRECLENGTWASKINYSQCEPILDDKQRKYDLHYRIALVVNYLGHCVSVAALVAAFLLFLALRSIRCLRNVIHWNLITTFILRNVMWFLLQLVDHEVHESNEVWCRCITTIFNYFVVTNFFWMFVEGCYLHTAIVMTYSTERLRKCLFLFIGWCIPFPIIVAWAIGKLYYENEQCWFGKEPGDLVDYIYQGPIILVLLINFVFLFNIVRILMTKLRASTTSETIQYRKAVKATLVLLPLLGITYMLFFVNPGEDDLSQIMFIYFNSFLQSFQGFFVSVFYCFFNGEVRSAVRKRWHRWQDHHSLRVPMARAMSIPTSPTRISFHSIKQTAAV
T3 sequence (P24387 whole entry): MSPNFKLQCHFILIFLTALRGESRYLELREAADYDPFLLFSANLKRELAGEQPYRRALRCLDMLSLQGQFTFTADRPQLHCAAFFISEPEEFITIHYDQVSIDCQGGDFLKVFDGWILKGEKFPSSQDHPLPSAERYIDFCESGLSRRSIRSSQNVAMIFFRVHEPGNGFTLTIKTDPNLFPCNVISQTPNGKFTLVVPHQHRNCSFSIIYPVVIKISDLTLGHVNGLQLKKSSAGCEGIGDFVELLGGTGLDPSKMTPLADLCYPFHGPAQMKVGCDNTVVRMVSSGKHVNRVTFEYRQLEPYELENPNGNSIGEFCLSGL

[19] = molecular target: T3, Corticotropin-releasing factor receptor 2/Corticotropin-releasing factor-binding protein; experiment: activators of CRF receptor 2 with binding protein – uHTS hits, confirmation (AID 602473); assay type: functional; details: read-out: EC50_Mean
[20] = CRF-BP/CRF-R2 complex antagonists, dose response, cell-based, uHTS hits, 384-well (AID 651639); assay type: functional, Homo sapiens; details: read-out: IC50_Mean
[21] = control 3'UTR Renilla luciferase suppression, dose response, counter-screen for Shn3 inhibitor project, cell-based, Clone20-Shn3RL, cherry-picked (AID 624133); assay type: functional
[22] = Shn3 3'UTR reporter inhibitors, dose response, cell-based, Clone20 osteoblasts, firefly luciferase, cherry-picked (AID 624132); assay type: functional;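 further: firefly luciferase luminescence from reporter carrying the Shn3 3'UTR in osteoblasts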
[23] = A cytotoxicity screen of small molecule inhibitors of the PhoP region in Salmonella typhi identified in the primary screen. [Related pubchem assays: 1850, 1864, 1985 ]; assay type: functional
[24] = molecular target: T4, Carboxy-terminal domain RNA polymerase II polypeptide A small phosphatase 1 (Homo sapiens, UniProt Q9GZU7); experiment: inhibitors of CTDSP1, concentration-response testing, biochemical assay, absorbance-based, actives from ultra-high-throughput screening (AID 540297); assay type: functional
T4 sequence (Q9GZU7 whole entry): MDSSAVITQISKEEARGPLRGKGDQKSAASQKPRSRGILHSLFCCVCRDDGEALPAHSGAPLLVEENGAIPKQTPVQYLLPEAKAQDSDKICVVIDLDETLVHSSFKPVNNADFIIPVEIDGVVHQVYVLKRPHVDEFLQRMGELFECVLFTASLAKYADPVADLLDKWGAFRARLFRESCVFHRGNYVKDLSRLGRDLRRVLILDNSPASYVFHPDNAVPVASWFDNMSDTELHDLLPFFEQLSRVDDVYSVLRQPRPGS

With `CCCc1cc(NC(=O)CCl)n(-c2ccccc2)n1` the EC50 [1] was > 150 µM (not active), the IC50 [2] was 4.55 µM (active) and the EC50 [3] was > 150 µM (not active). For the same compound, the EC50 [4] was > 150 µM (not active), the EC50 [5] was 29.7 µM (active) and the IC50 [6] was > 20 µM (inactive). For the same compound, the IC50 [7] was 11.1 µM (inactive), the EC50 [8] was 14.3 µM (active) and the CC50 [9] was 17.4 µM (active).

For `O=C(c1ccccc1-c1ccccc1)N1CCN(c2ccccn2)CC1`, the EC50 [1] was 19.9 µM (active), the EC50 [3] was 11.4 µM (active) and the EC50 [4] was 13.9 µM (inconclusive). The EC50 [5] was 9.85 µM (active) and the IC50 [10] was > 80 µM (inactive).

In the case of `Fc1ccc(-n2cc(CNCCc3cccnc3)c(-c3ccccc3Cl)n2)cc1`, the EC50 [11] is reported as 5.96 µM (active).

For `CN1c2ccc(C#Cc3cccnc3)cc2[C@@H]2[C@@H](CCN2S(=O)(=O)c2ccccc2F)[C@@H]1CO`, the AC50 [12] was 3.87 µM (active).

For `O=C(c1ccccc1)c1nn(-c2ccc(Cl)cc2)c(=O)cc1C(F)(F)F`, the AC50 [13] was 4.21 µM (active), the EC50 [14] was 0.222 µM (active) and the EC50 [15] was > 120 µM (not active). For the same compound, the EC50 [16] was > 120 µM (not active), the IC50 [10] was > 80 µM (inactive) and the CC50 [9] was 15.7 µM (active).

For `Brc1c(C[n+]2ccccc2)nc2ccccn12`, the IC50 [17] was > 50 µM (inactive).

In the case of `CC(CCc1ccco1)NC(=O)c1cccc2c1C(=O)N(C1CCCCC1)C2` (centres undefined), the IC50 [18] is reported as < 0.368 µM (active), the EC50 [19] is reported as > 53 µM (inactive) and the IC50 [20] is reported as > 20 µM (inactive).

For `COc1ccc(C(CNC(=O)COc2ccccc2OC)N(C)C)cc1OC` (centres undefined), the EC50 [11] was 1.19 µM (active).

With `Cc1noc(C)c1COC(=O)[C@@H](NC(=O)c1ccccc1)C(C)C` the AC50 [21] was 52.5 µM (active).

With `CC[C@]12c3[nH]c4cc(CCC(=O)N(C)C)ccc4c3CCN1C(=O)[C@@H](CC(=O)NC/C=C(\C)CCC=C(C)C)C[C@@H]2C(=O)N1CCN(C(=O)c2ccco2)CC1` the AC50 [22] was 1.68 µM (active) and the AC50 [21] was 1.72 µM (active).

With `Cc1cc(NC(=O)c2ccccc2)sc1C` the EC50 [23] was > 50 µM (active).

In the case of `Cc1cccc(C)c1NC(=O)CN(C)C(=O)c1ccc2nc[nH]c2c1`, the IC50 [24] is reported as 28 µM (active).

In the case of `COCCCN(C(=O)c1cc(-c2ccco2)nc2ccccc12)c1c(N)n(Cc2ccccc2)c(=O)[nH]c1=O`, the IC50 [24] is reported as 12 µM (active).

With `Cc1ccc(C)c(OCCn2ccnc2)c1` the IC50 [24] was 5.06 µM (active).
